Experimental data: ChEMBL document CHEMBL5241068, “Biguanides: Species with versatile therapeutic applications” (Eur J Med Chem, 2021)

How the values were obtained:
[1] = Inhibition of Brugia malayi DHFR
[2] = target: Replicase polyprotein 1ab (Severe acute respiratory syndrome coronavirus 2) (UniProt P0DTD1); test: Binding affinity to SARS CoV-2 3CL protease assessed as gibbs free energy change
[3] = Solubility of compound at pH 8; format: physicochemical; settings: buffer
[4] = Lipophilicity, logP of the compound; format: physicochemical; settings: octanol/water
Escherichia coli = test: Bactericidal activity against Escherichia coli assessed as time required to kill the bacteria at 95 uM; format: functional
MDA-MB-231 = test: Antiproliferative activity against human MDA-MB-231 cells in presence of phenformin; format: functional, cell-based
SK-OV-3 = test: Antiproliferative activity against human SK-OV-3 cells incubated for 72 hrs by MTT assay; format: functional, cell-based; settings: SK-OV-3, 72 h
IGROV-1 = test: Antiproliferative activity against human IGROV-1 cells incubated for 72 hrs by MTT assay; format: functional, cell-based; settings: IGROV-1, 72 h
T47D = test: Antiproliferative activity against human T47D cells in presence of phenformin; format: functional, cell-based
[5] = Selectivity index, ratio of IC50 for rat liver DHFR to IC50 for Toxoplasma gondii DHFR
[6] = Inhibition of Toxoplasma gondii DHFR
[7] = Inhibition of quorum sensing system in Chromobacterium violaceum CV12472
A2780 = test: Antiproliferative activity against human A2780 cells; format: functional, cell-based
C6661 = test: Anticancer activity against human C6661 cells; format: functional, cell-based
FaDu = test: Anticancer activity against human FaDu cells; format: functional, cell-based
[8] = Elimination half life in mouse at 1 mg/kg, po; format: ADME, organism-based; settings: in vivo, read-out: beta t1/2 (converted)
[9] = Cmax in mouse at 1 mg/kg, po; format: ADME, organism-based; set-up: dose 1 mg/kg, route po; settings: in vivo

Compound `CCc1nc(N)nc(N)c1-c1ccc(Cl)cc1` [PYRIMETHAMINE] has an IC50 [1] of 20.1 µM.

Work on `Cl.N=C(N)NC(=N)N1CCOCC1` yielded a deltaG [2] of -2.11 kcal/mol and a solubility [3] of 360 mg/mL.

With `N=C(NCCCCCCCCCCNC(=N)Nc1ncc(Cl)cn1)Nc1ncc(Cl)cn1` the logP [4] was 5.5.

In the case of `C=CC(=O)OCCc1ccc(/N=C(N)/N=C(\N)Nc2ccc(Cl)cc2)cc1.Cl`, the Time (Escherichia coli) is reported as 30 min.

`CN(C)C(=N)NC(=N)N` [METFORMIN] gave an IC50 (MDA-MB-231) of 4010 µM, an IC50 (SK-OV-3) of 150 µM and an IC50 (IGROV-1) of 850 µM. It also gave a deltaG [2] of -6.72 kcal/mol and an IC50 (T47D) of 9400 µM.

Compound `NC(N)=N/C(N)=N/c1ccc(OCc2ccc(-c3ccccc3)cc2)cc1` has an IC50 [1] of less than 5.83 µM.

For `CC1(C)N=C(N)N=C(N)N1c1ccc(OCc2ccc(-c3ccccc3)cc2)cc1`, the Ratio IC50 [5] was 2.15 and the IC50 [6] was 0.012 µM.

`NC(N)=N/C(N)=N/Cc1ccco1` gave an IC50 (SK-OV-3) of 380 µM and an IC50 (IGROV-1) of 150 µM.

`N=C(N=C(N)N)N(Cc1ccccc1)c1ccccc1` gave an IC50 [7] of 179 µM.

For `N=C(NCCCCCCCCCCCCNC(=N)Nc1ncc(Cl)cn1)Nc1ncc(Cl)cn1`, the logP [4] was 5.5.

With `NC(N)=N/C(N)=N/c1ccc(OCc2ccc(Cl)cc2Cl)cc1` the IC50 [1] was 6.31 µM.

Work on `NC(N)=N/C(N)=N/CCOc1ccn(-c2ccc(Cl)cc2)n1` yielded an IC50 (A2780) of 6.9 µM.

With `CCCC[C@@H](CC)CNC(=N)NC(=N)NCCCCCCNC(=N)NC(=N)NC[C@H](CC)CCCC` the EC50 (C6661) was 2.6 µM and the EC50 (FaDu) was 1.8 µM.

For `N=C(N=C(N)N)N(c1ccccc1)c1ccc(N)cc1`, the IC50 [7] was 120 µM.

For `COc1cc(Cc2cnc(N)nc2N)cc(OC)c1OC` [TRIMETHOPRIM], the IC50 [1] was 12.9 µM.

With `CC1(C)N=C(N)N=C(N)N1c1ccc(OCc2ccc(Cl)cc2Cl)cc1` the IC50 [1] was 5.73 µM.

Compound `NC(N)=N/C(N)=N/c1ccc(OCc2cccc(Cl)c2)cc1` has an IC50 [1] of 16.7 µM.

`CN(C)C(=N)N=C(N)N` [METFORMIN] showed a half-life [8] of 6 h and a Cmax [9] of 2000 ng/mL.

In the case of `Clc1ccc(Nc2ccnc(Nc3ccc(Cl)cc3)n2)cc1`, the logP [4] is reported as 5.5.
